These results are taken from patent publication US8513195B2, “Treatment of mood and anxiety disorders” (priority 2008, dated 2013).

The test system of assay [1] is mice. Put plainly: mouse tail suspension test (TST). Format: in vivo. The conditions noted are these: i.p., peptide 90 min, desipramine and fluoxetine (20 mg/kg) 30 min prior to test, 5 min trial. The procedure:
(§1) In these tests experimental animals are exposed to inescapable aversive situations (hanging by the tail, being into the water) and in response show alternate periods of agitation and immobility reflecting “attempts to escape” and ‘behavioural resignation” respectively.
(§2) The details of the experimental protocols used are as follows: mice were injected i.p. with vehicle, different doses of the peptide TAT-DEF-Elk-1, of a scrambled peptide (serving as control), of the MEK inhibitor SL327, or with the reference antidepressants fluoxetine (20 mg/kg) or desipramine (20 mg/kg), at appropriate time points before the test trial.
(§3) In the TST, each mouse was tested in an individual cubicle while suspended from a tail hanger with adhesive tape wrapped around its tail (1.5-2 cm from tip) 80 cm above the floor. The trial was conducted for 5 min, during which the duration of immobility was measured automatically (BIOSEB, France). For the FST, mice were placed in clear plastic cylinders (diameter 10 cm; height 25 cm) filled with water at 6 cm height (22-25° C.) for 6 min. A blinded observer scored the duration of immobility manually during the last 4 min of the 6-min test.

Assay [2] relates to mice. The assay is described as follows: mouse forced swimming test (FST). It counts as in vivo. The conditions noted are these: i.p., peptide 90 min, desipramine (20 mg/kg) 30 min prior to test, last 4 min of 6-min test. As for the experimental part: as §1, §2, §3
The subject of assay [3] is mice. Put plainly: social defeat stress (SDS) test. It counts as in vivo, mouse. To be noted: peptide 1 mg/kg; for SDS-induced social avoidance (time spend interacting, TSI): defeated mice, treated 15 or 21 days. From the text:
(A) Data represent means+/−SE of time spend interacting (TSI) with the cage, in the absence (non-hatched bars) or presence (hatched bars) of the target. When target is present, control mice engage in active social behaviour, seen as an increase of TSI (panel a), while vehicle-treated defeated mice (panel b; white bars) show lower TSI, indicating social avoidance.
In the social defeat stress test (SDS), mice were exposed repeatedly (2 week) to aggressive mice; controls were gently handled. Subsequently, the aggressors were removed. Mice were treated with vehicle or TAT-DEF-Elk1 (1 mg/kg) for 15 or 21 days, and then tested for SDS-induced social avoidance. The test box contained a perforated plastic cage that was empty for the first test session and that held a neutral mouse (target) for the second test session.

In assay [4] the test system is mice. Put plainly: unpredictable chronic mild stress paradigm (UCMS). To be noted: for UCMS-induced immobility in the TST / sucrose preference (% of sugar of total consumption): end of 3-week UCMS, peptide 1 mg/kg or fluoxetine 20 mg/kg once daily. It counts as in vivo, mouse. From the text: We have also assessed the effects of the TAT-DEF-Elk1 peptide in the unpredictable chronic mild stress paradigm ([…] is used as a pertinent model of depression with aetiological validity. In UCMS protocols animals are subjected for a long period to different non-anticipated stressors. Chronic exposure to stress results to a syndrome in mice that reproduces symptoms of depression, including increased resignation, anxiety-like behavior, decreased consumption of palatable food, and physiological changes. Chronic administration of compounds with antidepressant activity reverses these changes. The protocol that we have used consists of three weeks of UCMS, during which mice were subjected to various stressors according to a 'random' schedule. Body weight and coat state were assessed weekly, as markers of the progression of the UCMS-evoked syndrome. At the end of the 3 week period the emotional state of the mice was tested in behavioral tests of emotionality and of depression-like behaviors (FIG. 3A). Experimental groups of mice were as follows: (i) non-stressed mice: these were group housed and were handled and maintained under standard laboratory conditions (Group 1; FIG. 3B), (ii) stressed mice: these were maintained under standard laboratory conditions but were isolated in small individual cages. During the three week protocol they were exposed to three mild stressors per day. Stressed-mice were treated either with vehicle (Group 2; FIG. 3B), with the peptide (1 mg/kg; once daily), or with the reference antidepressant fluoxetine (20 mg/kg; once daily) (Group 3; FIG. 3B). Treatment with vehicle or compounds started at the beginning of the UCMS and lasted throughout the three week period. At the end of the UCMS paradigm, mice were tested for depressive-like responses, such as passivity and resignation measured as increased immobility in the tail suspension test and anhedonia measured as the preference to sucrose.

Assay [5] deals with mice. To be noted: described in the literature; cited from earlier work.
A further assay deals with Elk1. The assay is described as follows: tail suspension-induced Elk1 phosphorylation in medial prefrontal cortex (immunochemistry). To be noted: 2 mg/kg, 1 h30 before 10 min TST; perfused 20 min after start. It counts as in vivo, mouse. As for the experimental part:
(§4) In the first experiment, TAT-DEF-Elk-1 peptide (2 mg/kg) or vehicle were administrated 1 h30 before a 10 min tail suspension trial (TST). Mice were perfused 20 min after starting the TST test and phosphorylation of ERK and Elk1 was assessed with immunochemistry.

A further assay deals with ERK. Put plainly: tail suspension-induced ERK phosphorylation (immunochemistry). To be noted: 2 mg/kg, 1 h30 before 10 min TST; perfused 20 min after start. Format: in vivo, mouse. The procedure:
as §4

The test system of another assay is plasma corticosterone. Put plainly: plasma corticosterone after 30 min restraint stress (RIA). It counts as in vivo, C57BL/6J mice. As for the experimental part:
Data represent means+/−SE of plasma corticosterone in banal conditions (non-stressed, light grey bars) and immediately after a 30-min restraint stress (dark grey bars); vehicle or the TAT-DEF-Elk1 peptide were administered […] before the beginning of stress; *p<0.05 as compared to non-stressed; #p<0.05 as compared to vehicle-treated.
In the second experiment C57BL/6J mice (10 weeks old) were injected with TAT-DEF-Elk1 peptide or vehicle; 1 h30 after the injection the mice were subjected to a 30 min restraint stress i.e. mice were confined individually in a 50 ml Falcon tube in which a hole was made at the top for the mice to breathe. Mice were decapitated directly after restraint, blood was collected in 2 ml eppendorfs containing EDTA at 4° C. Samples were centrifuged for 15 min at 760 g, plasma was collected and corticosterone assessed using the Corticosterone Double Antibody 125-I RIA kit (MP BIOMEDICAL).

The mark [6] stands for this setting: stressed mice, peptide 1 mg/kg once daily for three weeks.

Turning to `CNCCCN1c2ccccc2CCc2ccccc21` [desipramine, reference compound], in the assay on mice [1], the “immobility in the TST” value is “of similar magnitude of that of fluoxetine and desipramine”. Moreover, the “immobility in the FST” value in the assay with mice [2] was “antidepressant-like effects similar to the classical antidepressant desipramine”. Further, in the assay on mice [3], the “SDS-induced social avoidance (time spend interacting, TSI)” value is on record as “did not have any effect”.
With `CNCCC(Oc1ccc(C(F)(F)F)cc1)c1ccccc1` (stereo not shown) [fluoxetine, reference compound], in the assay with mice [1], the “immobility in the TST” value was “of similar magnitude of that of fluoxetine and desipramine”. Also, in the assay with mice [4], the “UCMS-induced immobility in the TST” value is recorded as “similarly to the reference antidepressant fluoxetine” and the “sucrose preference (% of sugar of total consumption)” value is “similarly to the reference antidepressant fluoxetine”.
For `CN(C)CCCN1c2ccccc2CCc2ccccc21` [imipramine], the “duration of administration after which antidepressant action in the SDS test” value in the assay on mice [5] is recorded as 39 days.
Regarding “GRKKRRQRRRPPSPAKLSFQFPSSGSAQVHI (selective peptide inhibitor of Elk-1 activation - TAT-DEF-Elk-1) [TAT-DEF-Elk-1 peptide]”, the “immobility in the TST” value with mice [1] is reported as “reduced immobility in the TST similar to classical antidepressants”. For the same molecule, the “immobility in the FST” value with mice [2] is “induced antidepressant-like effects in the FST”. In the assay on mice [4], the “UCMS-induced immobility in the TST” value is “reduced UPMS-induced immobility in the TST” and the “sucrose preference (% of sugar of total consumption)” value is reported as “fully restored UCMS-blunted sucrose preference”. In the assay with mice [4] (setting [6]), the “UCMS-induced body weight loss” value was “reversed the progressive weight loss induced by UCMS” and the “UCMS-induced degradation of the coat state” value is “diminished the degradation of the coat state”. Besides, in the assay on mice [3], the “SDS-induced social avoidance (time spend interacting, TSI)” value is reported as “fully reverses this behaviour” and the “duration of administration after which active in the SDS test” value was 15 days. In addition, in the assay with Elk1, the “tail suspension-induced Elk1 phosphorylation in mPFCx” value is given as “reduces selectively tail suspension-induced Elk1 phosphorylation”. In addition, the “tail suspension-induced ERK phosphorylation” value with ERK was “does not inhibit tail suspension-induced ERK phosphorylation”. The “stress induced elevation of plasma corticosterone” value with plasma corticosterone (immediately after 30-min restraint stress, injected 1 h30 before) is “markedly reduces stress induced-elevations in plasma level corticosterone”. For the same molecule, the “basal plasma level corticosterone” value in the assay with plasma corticosterone (non-stressed mice) was “does not affect basal plasma level corticosterone”.
